The NIST ThermoML archive (doi:10.1016/j.jct.2012.06.023)
Numbers after ± are expanded uncertainties.

Assays:
[1] = 298.15 K; for surface tension liquid-gas: Wilhelmy plate; for viscosity: 101.33 kPa, Liquid, Concentric cylinders viscometry
[2] = refractive index (Na D-line) (dimensionless); conditions: 293.1 K; 101.33 kPa; Liquid; Standard Abbe refractometry
[3] = xn = mol fraction of the nth substance listed; conditions: x1 = 1; for surface tension liquid-gas: Wilhelmy plate; for viscosity: 101 kPa, Liquid, Concentric cylinders viscometry

Compound	surface tension liquid-gas [1] [mN/m]	viscosity [1] [mPa·s]	refractive index [2]	surface tension liquid-gas ([3]; 298.15 K) [mN/m]	viscosity ([3]; 298.15 K) [mPa·s]	surface tension liquid-gas ([3]; 303.15 K) [mN/m]	viscosity ([3]; 303.15 K) [mPa·s]	surface tension liquid-gas ([3]; 308.15 K) [mN/m]	viscosity ([3]; 308.15 K) [mPa·s]	surface tension liquid-gas ([3]; 313.15 K) [mN/m]	viscosity ([3]; 313.15 K) [mPa·s]
CN(C)C=O [dimethylformamide]	35.2 ± 0.04	0.8162 ± 0.0092	1.429 ± 0.02								
CN(C)C=O [dimethylformamide] + CCCCCCCO				35.2 ± 0.04	0.8162 ± 0.0092	34.1 ± 0.04	0.7678 ± 0.0091	33 ± 0.04	0.7262 ± 0.009	32 ± 0.03	0.678 ± 0.0089
CN(C)C=O [dimethylformamide] + CCCCCCO				35.2 ± 0.04	0.8162 ± 0.0092	34.1 ± 0.04	0.7678 ± 0.0091	33 ± 0.04	0.7262 ± 0.009	32 ± 0.03	0.678 ± 0.0089
CN(C)C=O [dimethylformamide] + CCCCCO				35.2 ± 0.04	0.8162 ± 0.0092	34.1 ± 0.04	0.7678 ± 0.0091	33 ± 0.04	0.7262 ± 0.009	32 ± 0.03	0.678 ± 0.0089
CCCCCCCO [heptan-1-ol]	26.47 ± 0.13	5.944 ± 0.038	1.424 ± 0.02								
CCCCCCO [hexan-1-ol]		4.593 ± 0.022	1.418 ± 0.001								
CCCCCO [pentan-1-ol]	24.55 ± 0.062	3.5 ± 0.018	1.409 ± 0.02								
